The results in this text go back to a melting point compilation (Tetko et al.).

Structures are written as SMILES.

For orientation: melting point means the temperature, or range, at which the solid turns liquid.

Compound `Cc1cc(N)ccc1C(N)=O` gave a melting point of 154 to 156 °C.
Regarding `Cc1nc(Cl)c2c3c(sc2n1)CC(C)CC3` (stereo not drawn), the melting point lay within 89 to 91 °C.
Take `Cc1cc(C)c(S(=O)(=O)Cl)c(C)c1NS(C)(=O)=O`: the melting point was in the range of 175 to 177 °C.
For the compound `CCC(C)(C#N)NC(=O)c1ccccc1` (stereo not drawn), the melting point lay in the range of 138 to 140 °C.
`O=C(O)c1cc2ccccc2cc1NC(=O)C1CC1` returned a melting point of 235 to 237 °C.
Consider `Cn1ccnc1C(N)c1ccccc1` (stereo not drawn), for which the melting point fell in the range of 51 to 53 °C.
As for `CCN(CC)c1ccc(NC(=O)CCl)cc1`, the figure is 141 to 143 °C.
Then `O=C(O)Cc1csc(NC(=O)c2ccccc2I)n1`, with 167 to 169 °C; and `CN(C)C(Cc1ccccc1)C(=O)O` (stereo not drawn), with 225 to 227 °C; and `CC(=O)Nc1sc(C)c(C)c1C(=O)O`, with 217 to 219 °C.
As for `N#CCC(=O)Nc1ncccn1`, the melting point fell in the range of 159 to 161 °C.
Then `Cc1cc(C(C)(C)C)cc(C)c1CCNC(=O)CCl`, with 114 to 116 °C.
In turn, `CN(C)CCN1C(=O)C=CC1=O` showed a melting point of 44 to 46 °C.
Compound `CNC(=O)CNc1ccccc1C` gave a melting point of 112 to 114 °C.
`CC(=O)C(C#N)c1ccc(Cl)cc1` (stereo not drawn) came in with a melting point of 129 to 131 °C.
In turn, `O=C(O)c1nn(-c2ccccc2I)cc1O` showed a melting point of 198 to 200 °C.
Consider `O=C(O)c1cc2cccc(C(F)(F)F)c2[nH]1`, for which the melting point lay in the range of 179 to 181 °C.
As to `COc1cc(NC(C)=O)ccc1N`, the melting point lay within 128 to 130 °C.
As for `COC(=O)c1cn(CC(=O)O)nn1`, the figure is 176 to 178 °C.
As for `CC(C(=O)Nc1ccc(N)cc1)n1cncn1` (stereo not drawn), the figure is 202 to 204 °C.
As for `NCc1cc[nH]n1`, the figure is 58 to 60 °C; as for `CCn1c(S)nnc1-c1ccncc1`, 140 to 142 °C.
Regarding `Cn1c(-c2ccccc2)c(Br)c2ccccc21`, the melting point fell in the range of 59 to 61 °C.
In the case of `COc1ccc(NC(=O)C(C)Cl)cc1` (stereo not drawn), the melting point lay within 133 to 135 °C.
`NCc1nnc2ccccn12` showed a melting point of 131 to 133 °C.
For the compound `Cc1ccc(NS(=O)(=O)c2cc(N)ccc2Cl)c(C)c1`, the melting point was 57 to 59 °C.
For the compound `O=S(=O)(Cl)c1ccc2oc3ccccc3c2c1`, the melting point was in the range of 134 to 136 °C.
`CS(=O)(=O)c1cccc(C(=O)c2ccc(F)cc2F)c1` displayed a melting point of 129 to 131 °C.
`Sc1ccc2c(c1)OCCCO2` had a melting point of 41 to 43 °C.
For the compound `CN(C)CCCNS(=O)(=O)c1cccc(C#N)c1`, the melting point fell in the range of 101 to 103 °C.
In turn, `O=c1[nH]c(-c2ccccc2F)cs1` yielded a melting point of 187 to 189 °C.
As for `O=c1n(CCO)nc2ccccn12`, the figure is 134 to 136 °C.
As for `CCOC1CCN(C(=O)Nc2cccc(C(=O)O)c2)CC1`, the melting point lay within 179 to 181 °C.
`NC(=O)NC1CCCc2ccccc21` (stereo not drawn) had a melting point of 204 to 206 °C.
`O=C(O)CCN1C(=O)C(=O)c2ccc(F)cc21` had a melting point of 179 to 181 °C.
Turning to `O=C(c1cc(Cl)c(Cl)[nH]1)C(Cl)(Cl)Cl`, the melting point fell in the range of 129 to 131 °C.
As to `O=C1CCc2cc(Cl)ccc2N1`, the melting point fell in the range of 162 to 164 °C.
Compound `c1ccc2c(c1)NCCN2C1CC1` registered a melting point of 58 to 60 °C.
Consider `O=C(c1ccc(Br)cc1)C(F)(F)F`, for which the melting point fell in the range of 29 to 31 °C.
As for `CC(NC(=O)c1ccco1)C(=O)O` (stereo not drawn), the figure is 100 to 102 °C.
Take `NC(=O)NCc1cccnc1`: the melting point lay within 182 to 184 °C.
In turn, `CC(C)n1c(S)nnc1N(C)C` had a melting point of 127 to 129 °C.
`CC(C)CNS(=O)(=O)c1cc(C(=O)O)c(Cl)cc1Cl` displayed a melting point of 179 to 181 °C.
As for `COc1ccc2c(c1)NC(=O)C2O` (stereo not drawn), the melting point fell in the range of 189 to 191 °C.
Compound `CCC(=O)c1c(C)nn(C)c1C` displayed a melting point of 50 to 52 °C.
`Nc1ccc(C(=O)N2CCOCC2)cc1` displayed a melting point of 134 to 136 °C.
Then `CCN1C(=O)CC(=O)NC1=O`, with 118 to 120 °C.
The compound `Cc1c(C(=O)O)sc2nc3n(c(=O)c12)CCCCC3` gave a melting point of 253 to 255 °C.
As for `Nc1cc(-c2cccc(Cl)c2)nn1-c1ccccc1`, the figure is 118 to 120 °C; as for `COc1ccc(C2(C)NC(=O)NC2=O)cc1OC` (stereo not drawn), 177 to 179 °C.
Turning to `C=CC(=O)Nc1cc(Cl)c(OC)cc1OC`, the melting point was 142 to 144 °C.
In the case of `COc1ccc(C(=O)NC(=O)CCl)cc1`, the melting point fell in the range of 160 to 162 °C.
Take `Nc1ccc(N2CCNCC2)cn1`: the melting point lay in the range of 162 to 164 °C.
As for `N#Cc1c(S)nc2c(c1-c1ccco1)CCC2`, the figure is 279 to 281 °C.
Then `CCOC(=O)N1CCC(NC(N)=O)CC1`, with 203 to 205 °C; and `CC(=O)NC1CCN(C(C)C)CC1`, with 84 to 86 °C; and `NCC(O)c1cc2ccccc2s1` (stereo not drawn), with 128 to 130 °C.
As for `Cc1ccc(S(=O)(=O)N(C)c2ccc(O)cc2)cc1`, the figure is 137 to 139 °C; as for `CC(C)(C)c1nc(=N)s[nH]1`, 160 to 162 °C.
Regarding `Nc1nc(-c2ccc(C3CCCCC3)cc2)cs1`, the melting point fell in the range of 227 to 229 °C.
`O=C(O)c1cc(Br)c(S(=O)(=O)Cl)s1`: the melting point fell in the range of 129 to 131 °C.
For `O=C(O)C=Cc1ccccc1OCC1CCCCC1`, the melting point is 99 to 101 °C.
As for `Cn1cc(S(N)(=O)=O)c(N)n1`, the figure is 162 to 164 °C; as for `Cc1ccc(-n2ncc(Cl)c(Cl)c2=O)cc1Cl`, 206 to 208 °C.
In turn, `O=C(O)CC1(O)CCCC1` gave a melting point of 72 to 74 °C.
With `CC(C)NC(=S)N(C)C`, the melting point is 73 to 75 °C.
Take `COCCNc1ccc(S(C)(=O)=O)cc1N`: the melting point lay within 144 to 146 °C.
Consider `Cc1cc([N+](=O)[O-])cc(C)c1S(=O)(=O)Cl`, for which the melting point lay in the range of 84 to 86 °C.
`O=C(O)/C=C/c1nccs1` gave a melting point of 182 to 184 °C.
Then `NNc1cccc(C(F)(F)F)n1`, with 62 to 64 °C.
On to `Cc1ccc(S(=O)(=O)Nc2cc(Cl)ccc2O)cc1`, for which the melting point lay within 189 to 191 °C.
As to `O=C(O)C1CC(=O)N(Cc2ccccc2)C1` (stereo not drawn), the melting point lay within 140 to 144 °C.
Turning to `CCSc1ccc(C(=O)O)cc1`, the melting point is 145 to 147 °C.
`O=C(CN1CCNCC1)Nc1ccc(OC(F)(F)F)cc1` showed a melting point of 86 to 88 °C.
With `Clc1nnc(-c2cccc3ncccc23)s1`, the melting point fell in the range of 143 to 145 °C.
`COc1cc(NC(=O)C2CCCCC2)c(C(=O)O)cc1OC` came in with a melting point of 155 to 157 °C.
As for `O=C(O)CCc1ncc(-c2ccc(F)cc2)o1`, the melting point was in the range of 144 to 146 °C.
For the compound `COC(=O)c1cc(S(N)(=O)=O)c(F)cc1Br`, the melting point was in the range of 164 to 166 °C.
The compound `OCCC1CSCCN1` (stereo not drawn) yielded a melting point of 86 to 88 °C.
`Nc1oncc1-c1ccccc1` returned a melting point of 97 to 99 °C.
In turn, `Nc1ccc(Oc2ccnc3ccccc23)c(F)c1` yielded a melting point of 158 to 160 °C.
On to `O=C(O)CCC(=O)c1ccc(I)cc1`, for which the melting point lay within 175 to 177 °C.
`OC(c1ccccc1)c1cccc(Cl)c1Cl` (stereo not drawn) displayed a melting point of 79 to 81 °C.
In turn, `N#Cc1cc(N)c(Cl)c([N+](=O)[O-])c1` showed a melting point of 205 to 207 °C.
In turn, `CS(=O)(=O)c1ccccc1NN` returned a melting point of 75 to 77 °C.
In turn, `NC(=O)CCc1ccc(N)cc1` gave a melting point of 131 to 133 °C.
Compound `Cc1ccc(C(=O)O)n1C` returned a melting point of 149 to 151 °C.
Take `O=C(O)CSc1nnc(-c2ccccc2F)n1-c1ccccc1`: the melting point was in the range of 210 to 212 °C.
